Reference: patent US7501233B2, “Method for measuring the vitality of cells” (priority 2000, dated 2009)
*1 amine or outer side, *2 acyl side, *3 side chain or, on linkers, in order; H or OH if unused. Where a SMILES comes first, the peptide text is derived from it. Bridges are numbered along the chain shown (N, C = ends). Roman numbers before positions name the chains, in order. [ ]: non-standard residue; d: D form. Actinocin(9to1) = Cc1c2oc3c(C)ccc(C(=O)[*:1])c3nc-2c(C(=O)[*:2])c(N)c1=O; NMeV = CN[C@H](C(=O)O)C(C)C; Sar = CNCC(=O)O

System: Jurkat cells
Assay: Electrorotation measurement (ER spectra) of single cells in a microelectrode field cage
Type: cell-based
Excerpt: An instrument already described by C. C. Reichle, T. Schnelle, T. Müller, T. Leya and G. Fuhr (2000, A new microsystem for automatic electrorotation measurements using laser tweezers, Biochimica et Biophysica Acta 1459, p. 218- 229), a combination of dielectrophoretical field cages with optical traps, especially laser tweezers, was used for determination of the electrorotation spectra (FIG. 6). […] Reichle and G. Fuhr 2000, Combined dielectrophoretic field cages and laser tweezers for electrorotation, Applied Physics B, Lasers and Optics, Springer Verlag.
Jurkat T lymphoma cells and U937 monocytic cells were cultivated in RPMI-1640 medium supplemented with 10% fetal calf serum and 100 IU/ml penicillin as well as 100 IU/ml streptomycin. Apoptosis was triggered by addition of 5 μg/ml actinomycin D in a culture that was seeded the day before with 2×10^5 cells per ml. The classical morphological changes during apoptosis were documented photographically (see FIG. 1). At different times, an aliquot was taken from the culture, added to a mixture of isotonic phosphate buffer (PBS, D8662 from SIGMA with calcium and magnesium) and, if desired, 0.3 M inositol with correspondingly indicated electrical conductivity, and introduced in a device for measurement of the electrorotation in a microelectrode system. As a control, untreated Jurkat cells were used (FIG. 5). For comparison, electrorotation spectra (ER spectra) were determined from ionomycin-treated cells ([…]) as well as from cells the plasma membrane of which had been damaged by increasing the voltage from 4 V to 6.8 V or a treatment with optical tweezers with 30-60 mW (2.8 A of the 1 W Nd:YAG laser, TEM00, 1064 nm, LD 3000i, Laser Quantum Ltd., Manchester, UK, P.A.L.M. System) for 15 minutes. For this, the cells were transferred individually to the center of the quadrupole or octupole of the microelectrode system. For this, optical tweezers with a power of approx. 30 mW were used in the indicated cases at the site of holding. The frequency of the cell rotation was measured either automatically or using a timer (FIG. 2). The uptake of propidium iodine (5 μm) in necrotically damaged cells or comparative measurements with vital and apoptotic cells (FIGS. 3 and 4) was measured by confocal nanofluorometry (Gradl, T. Müller, C. Reichle, T. Schnelle and G. Fuhr, 1999, Micro-Electrode Systems for Cell Analysis, European Journal of Cell Biology, Suppl. 49, Vol. 78; T. Schnelle, T. Müller, G. Gradl, S. G. Shirley and G. Fuhr, 2000, Dielectrophoretic manipulation of suspended submicron particles, ELECTROPHORESIS 2000, 21, p. 66-73).
The device for measurement of the electrorotation was attached to a fluorescence correlation spectrometer. The cells were made visible over a 40×W 1.2 NA lens. They were excited with 1.5 μW by a helium-neon laser with a wavelength of 543 nm and the radiated fluorescence was passed through a 585 DF 35 band pass filter over a 50 μm pinhole to a photodiode, with which the fluorescence photons were counted.

[1] = ionomycin-treated cell vs. untreated cell, PBS

| SMILES | ratio of rotation speed at 10 MHz to rotation speed at 2.5 MHz (apoptotic Jurkat cell (actinomycin D, 4 hours), normal cell near 1, necrotic 0.6-0.8) | field frequency of highest rotation speed in ER spectrum (apoptotic Jurkat cell, 5 μg/ml actinomycin D for 4 hours (FIG. 2E), normal cell maximum around 2.5 MHz) | dielectric constant εω in the cell (ionomycin 10 μM, Jurkat cell in PBS, from fits of ER spectra, increase from 45 (untreated)) | conductivity σ (as sum of σ0, Δσ1 and Δσ2) in the cell (ionomycin 10 μM, approx. 5 min, Jurkat cell in PBS, from fits of ER spectra, increase from 0.77 (untreated)) [s m^−1] | increase in the HF conductivity of the cytoplasm [1] | increase of the dielectric constant of the cytoplasm [1] |
| --- | --- | --- | --- | --- | --- | --- |
| Cc1c2oc3c(C)ccc(C(=O)N[C@@H]4C(=O)N[C@H](C(C)C)C(=O)N5CCC[C@H]5C(=O)N(C)CC(=O)N(C)[C@@H](C(C)C)C(=O)O[C@@H]4C)c3nc-2c(C(=O)N[C@@H]2C(=O)N[C@H](C(C)C)C(=O)N3CCC[C@H]3C(=O)N(C)CC(=O)N(C)[C@@H](C(C)C)C(=O)O[C@@H]2C)c(N)c1=O [actinomycin D, Actinomycin D] (I: T[dV]P[Sar][NMeV] / II: T[dV]P[Sar][NMeV]; ester I:1-I:C, II:1-II:C; linker I:N-II:N via Actinocin(9to1)) | 1.4 | approx. 10 MHz | – | – | – | – |
| C[C@H](CCC(=O)O)C[C@H](C)C[C@H](C)C(=O)/C=C(\O)[C@H](C)C[C@H](C)C/C=C/[C@@H](C)[C@@H](O)[C@@H](C)[C@@H](O)C[C@@H]1CC[C@@](C)([C@H]2CC[C@@](C)([C@@H](C)O)O2)O1 [ionomycin, Ionomycin] | – | – | 75 | 1.15 | approx. 40% | more than 60% |
